Source: patent publication US4504486A (priority 1982, dated 1985)

How the values were obtained:
Plasmopara viticola = assay: Grape Downy Mildew Control (detached grape leaves); format: in vivo; settings: in Vitis vinifera, 250 ppm spray, disease reduction relative to untreated check, read-out: % Control GDM (Grape Downy Mildew)
Protocol: Grape Downy Mildew Control
The compounds of the invention were tested for the control of the Grape Downy Mildew Control organism Plasmopara viticola. Detached leaves, between 70 and 85 mm in diameter, of 7-week old Vitis vinifera cultivar Emperor grape seedlings were used as hosts. The leaves were sprayed with a 250 ppm solution of the test compound in acetone. The sprayed leaves were dried, inoculated with a spore suspension of the organism, placed in a humid environmental chamber and incubated at 66° to 68° F. and about 100% relative humidity. After incubation for 2 days, the plants were then held in a greenhouse 7 to 9 days; then the amount of disease control was determined. The percent disease control provided by a given test compound was based on the percent disease reduction relative to untreated check plants.

Phytophthora infestans = assay: whole plant or invertebrate; format: in vivo; settings: in Solanum lycopersicum, 168 h, read-out: % Control TLB (Tomato Late Blight)
Septoria apii = format: in vivo; settings: 250 ppm spray; celery plants; relative to untreated check
[1] = system: Alternaria solani conidia; assay: Tomato Early Blight (tomato seedlings); format: in vivo; settings: 250 ppm spray, inoculated 1 day later, relative to untreated check
Protocol: Compounds of the invention were tested for the control of the Tomato Early Blight organism, Alternaria solani conidia. Tomato (variety Bonny Best) seedlings of 6 to 7 weeks old were used. The tomato plants were sprayed with a 250 ppm solution of the test compound in an acetone-and-water solution containing a small amount of a nonionic emulsifier. The sprayed plants were inoculated 1 day later with the organism, placed in the environmental chamber and incubated at 66° to 68° F. and 100% relative humidity for 24 hours. Following the incubation, the plants were maintained in a greenhouse for about 12 days. Percent diseases control was based on the percent disease development on untreated check plants.

Erisiphe polygoni = assay: Bean Powdery Mildew (seedling bean plants); format: in vivo; settings: 240 h; 250 ppm spray; bean seedlings, inoculated 1 day later; relative to untreated check; read-out: % Control BPM (Bean Powdery Mildew)
Protocol: The compounds of the invention were tested for the control of the Bean Powdery Mildew organism Erisiphe polygoni. Seedling bean plants were sprayed with a 250 ppm solution of the test compound in acetone, water and a nonionic emulsifier. The sprayed plants were then inoculated 1 day later with organism. The plants were maintained for 10 days at temperatures of 68° F. at night with daytime temperatures of 72° to 80° F.; relative humidity was maintained at 40% to 60%. The percent disease control provided by a given test compound was based on the percent disease reduction relative to the untreated check plants.

Piricularia oryzae = format: in vivo; settings: 625 ppm spray; rice seedlings, inoculated 1 day later; relative to untreated check
Uronyces phaseoli tipica = assay: Leaf Rust / Bean Rust (pinto beans); format: in vivo; settings: 336 h, 250 ppm spray, about 14 days, relative to untreated check, read-out: % Control BR (Bean Rust)
Protocol: The Leaf Rust test was made using pinto beans. The pathogen was Uronyces phaseoli tipica. The pinto bean plants were sprayed with a 250 ppm solution of the test compound in an acetone-water mixture containing a nonionic emulsifier. The treated plants were inoculated thereafter with the pathogen and then incubated in an environmental chamber for approximately 20 hours at 100% relative humidity and a temperature of 68° to 70° F. The plants were then removed from the chamber, allowed to dry, and then maintained in a greenhouse at a 60% to 80% relative humidity. The rate of infection on the leaves was made after about 14 days. The percent disease control provided by a given test compound was based on the percent disease reduction relative to untreated check plants.

Botrytis cinerea = assay: Mycelial Inhibition, Botrytis cinerea; format: cell-based; settings: Standard DIFOLATAN; 500 ppm, 25° C., 24 hours; 0 = more than 1.6 micrograms/cm^2 required for 99% control
Protocol: (§1) The compounds of the present invention were evaluated for in-vitro fungicidal effectiveness by means of a Mycelial Inhibition test. This test is designed to measure the fungitoxic activity of fungicidal chemicals in terms of their degree of inhibition of mycelium growth. Each compound to be tested was dissolved in acetone to 500 ppm concentration. Paper strips were infused with the particular mycelium growth by covering the paper with a potato dextrose broth culture of mycelial suspension. The papers were then placed on potato dextrose agar plates and sprayed by means of a microsprayer with the fungicidal solution. The treated paper strips were incubated at 25° C. and the data is taken after 24 hours. Fungicidal activities are measured by a zone of inhibited mycelial growth from the center of the paper strip. The effectiveness of the compounds tested for fungicidal activity is reported in Table II (a) for those compounds which were effective in inhibiting mycelial growth.
(§2) The activity is reported in terms of [formula]
(§3) When more than 1.6 micrograms/cm^2 for 99% control of the fungus for the test compound is required, the activity is reported as 0.

Pythium ultimum = assay: Mycelial Inhibition, Pythium ultimum; format: cell-based; settings: Standard DIFOLATAN; 500 ppm, 25° C., 24 hours; 0 = more than 1.6 micrograms/cm^2 required for 99% control
Protocol: as §1, §2, §3

Rhizoctania solani = assay: Mycelial Inhibition, Rhizoctania solani; format: cell-based; settings: Standard DIFOLATAN; 500 ppm, 25° C., 24 hours; 0 = more than 1.6 micrograms/cm^2 required for 99% control
Protocol: as §1, §2, §3

Row | SMILES | pest or weed control at 250 ppm (Plasmopara viticola) | pest or weed control at 250 ppm (Phytophthora infestans) | % Control CLB (Celery Late Blight) (Septoria apii) | % Control TEB (Tomato Early Blight) [1] | pest or weed control at 250 ppm (Erisiphe polygoni) | % Control Rice Blast (Piricularia oryzae) | pest or weed control at 250 ppm (Uronyces phaseoli tipica) | Mycelial inhibition, Botrytis (% Standard) (Botrytis cinerea) | Mycelial inhibition, Pythium (% Standard) (Pythium ultimum) | Mycelial inhibition, Rhizoc. (% Standard) (Rhizoctania solani)
1 | Cc1cc(=O)on1C(=O)c1ccc(Cl)cc1 [Compound 6] | 16% | 50% | 0% | 0% | 0% | 0% | 0% | 6 % Standard | 12 % Standard | 33 % Standard
2 | CC(C)c1cc(=O)on1C(=O)c1ccc(Cl)cc1Cl [Compound 5] | 3% | 69% | 0% | – | 0% | 83% | 0% | 0 % Standard | – | 23 % Standard
3 | Cc1cc(=O)on1C(=O)c1ccc(Cl)cc1[N+](=O)[O-] [Compound 8] | 6% | 56% | 11% | 56% | 0% | 0% | 0% | 15 % Standard | 0 % Standard | 0 % Standard
4 | CCCc1cc(=O)on1C(=O)c1ccc(Cl)cc1Cl [Compound 3, 3-n-propyl-2-(2',4'-dichlorobenzoyl)-3-isoxazolin-5-one] | 0% | 35% | 0% | – | 0% | 44% | 0% | 0 % Standard | – | 0 % Standard
5 | Cc1cc(=O)on1C(=O)c1ccc(Cl)cc1Cl [Compound 2, 3-methyl-2-(2',4'-dichlorobenzoyl)-3-isoxazolin-5-one] | 14% | 97% | 99% | 92% | 21% | – | 0% | 34 % Standard | 0 % Standard | 0 % Standard
6 | Cc1cc(=O)on1C(=O)c1ccc([N+](=O)[O-])cc1 [Compound 1, 3-methyl-2-(4'-nitrobenzoyl)-3-isoxazolin-5-one] | 21% | 0% | – | 0% | 0% | – | 0% | 0 % Standard | 0 % Standard | 0 % Standard
7 | Cc1cc(=O)on1C(=O)c1ccc([N+](=O)[O-])cc1Cl [Compound 7] | 19% | 31% | 44% | 0% | 0% | 50% | 0% | 0 % Standard | 0 % Standard | 0 % Standard
8 | Cc1cc(=O)on1C(=O)c1ccccc1 [Compound 4] | 6% | 50% | 0% | – | 0% | 0% | 0% | 0 % Standard | – | 0 % Standard
